Molecular target: T1, BRAF V600E (Homo sapiens, UniProt P15056, V600E)
T1 construct: endogenous C-terminal HiBiT fusion tag on BRAF V600E allele; endogenous in cells; host or cells: A375 clone 1F10 (CRISPR-Cas9 knock-in of the HiBiT tag; parental A375 from ATCC)
Assay: BRAF HiBiT degradation assay, C-terminal HiBiT-tagged BRAF V600E A375 cells (clone 1F10), Nano-Glo HiBiT Lytic assay
Format: cell-based
Conditions: A375 (BRAF V600E); for DC50: DC50 at 50%: fitted conc. at Y=50; for Dmax: A-375, percentage protein degraded at maximal compound effect relative to DMSO
From the text: An A375 cell line expressing a homozygous V600E mutation was purchased from ATCC (Manassas, VA, USA). An A375 clone 1F10 cell line with an endogenous C-terminal HiBiT fusion tag on BRAF V600E allele was generated internally using CRISPR-Cas9 technology and cultured in DMEM, high glucose supplemented with 10% FBS and 1× GlutaMAX. A HCT-116 BRAF−/− cell line overexpressing the C-terminal HiBiT-tagged G466V, G469A, and D594G mutants were generated by lentiviral transduction, externally at Biosettia Inc (San Diego, CA, USA). The stably transfected cells were cultured in RPMI media supplemented with 10% FBS, 1× GlutaMAX, and 0.25 μg/ml puromycin. DMEM medium, RPMI 1640 medium, GlutaMAX, fetal bovine serum (FBS), and puromycin were purchased from Gibco (Grand Island, NY, USA). HCT-116 BRAF−/− cells were purchased from Horizon Discovery (Waterbeach, UK).
The C-terminal HiBiT tagged BRAF A375 cells (monoclonal cell line, cell clone 1F10) were seeded at a density of 10,000 cells/well in 30 μL media (DMEM, high glucose supplemented with 10% FBS and 1× GlutaMAX) in white opaque 384-well plates (Corning #3570) from column 1 to column 23. The wildtype A375 cells were seeded in column 24 at the same cell density in 30 μL media. Cells were incubated at 37° C. with 5% CO2 for 24 h.
Intermediate compound dilution series (5-point, ranging from 5 mM to 0.5 μM, 10-fold dilutions in DMSO) were prepared in a source plate (Beckman Coulter cat. no. 001-16128). Final compound dilution series (11-point, ranging from 1 μM to 0.01 nM, half-log dilutions in DMSO) were stamped into the assay plate (Corning #3570, column 1-11 and 12-22) using the Echo Acoustic Liquid Handler (Beckman Coulter). Each compound was plated in duplicate, and the total volume of compound DMSO solution was 60 nL/well (0.2% final DMSO concentration). DMSO was included in wells A23-L23 and A24-L24. The DMSO-treated HiBiT-tagged samples served as Negative Control (NC) and the DMSO-treated wildtype samples served as Background Control (BC) for the HiBiT assay.
HiBiT signal was measured by a Nano-Glo HiBiT Lytic assay (Promega cat. no. N3050). HiBiT lytic detection reagent (Nano-Glo HiBiT Lytic Buffer with 1:50 Nano-Glo HiBiT Lytic Substrate and 1:100 LgBiT Protein, 40 μL) was added using Bravo. The mixture was incubated at room temperature, in the dark, and with gentle shaking for 10 min. Luminesce units (LU) were read on an EnVision plate reader 2105 (Perkin Elmer).
Percent protein remaining and viability remaining per sample were calculated as follows: […]
% Protein remaining values were plotted as a function of compound concentration. XC50 (DC50) values were determined by fitting curves using the following equation:
For the HiBiT degradation assay, the key parameters reported include: • The dose of compound that produces 50% degradation (DC50 at 50%): • DC50 at 50%: the Fitted X value (Conc.) at Y=50 (response) • Observed Dmax (Obs. Dmax) is the percentage protein degraded at maximal compound effect relative to DMSO-treated control: […]

T1 sequence (P15056 whole entry V600E, the tested form may be a part): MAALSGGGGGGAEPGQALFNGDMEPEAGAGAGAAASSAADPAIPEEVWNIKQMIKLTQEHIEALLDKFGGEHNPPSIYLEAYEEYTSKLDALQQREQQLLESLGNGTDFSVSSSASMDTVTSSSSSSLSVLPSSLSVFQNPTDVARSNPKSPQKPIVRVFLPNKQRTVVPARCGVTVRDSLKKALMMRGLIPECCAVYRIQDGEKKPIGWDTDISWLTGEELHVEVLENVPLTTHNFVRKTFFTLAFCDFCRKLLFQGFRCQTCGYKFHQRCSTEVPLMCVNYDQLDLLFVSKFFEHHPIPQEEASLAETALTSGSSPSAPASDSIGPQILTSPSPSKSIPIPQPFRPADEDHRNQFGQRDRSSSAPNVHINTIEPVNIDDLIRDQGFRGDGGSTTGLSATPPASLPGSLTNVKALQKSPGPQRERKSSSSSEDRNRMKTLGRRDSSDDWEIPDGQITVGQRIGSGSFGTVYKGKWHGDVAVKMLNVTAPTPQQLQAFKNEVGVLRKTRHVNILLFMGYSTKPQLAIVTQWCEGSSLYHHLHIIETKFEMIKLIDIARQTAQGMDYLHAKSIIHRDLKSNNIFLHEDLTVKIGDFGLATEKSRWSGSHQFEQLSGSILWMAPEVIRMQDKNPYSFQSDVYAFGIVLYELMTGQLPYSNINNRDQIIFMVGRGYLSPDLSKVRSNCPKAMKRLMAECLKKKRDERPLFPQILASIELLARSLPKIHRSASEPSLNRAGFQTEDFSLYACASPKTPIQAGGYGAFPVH

Row | SMILES | DC50 | Dmax
1 | CCCS(=O)(=O)Nc1cccc(-c2nc(C3CCN(C(=O)C4CCN(C(=O)C5CCN(c6ccc([C@@H]7CCC(=O)NC7=O)cc6)CC5)CC4)CC3)sc2-c2ccncc2)c1F [Compound 200, N-[3-(2-{1-[1-(1-{4-[(3S)-2,6-dioxopiperidin-3-yl]phenyl}piperidine-4-carbonyl)piperidine-4-carbonyl]piperidin-4-yl}-5-(pyridin-4-yl)-1,3-thiazol-4-yl)-2-fluorophenyl]propane-1-sulfonamide] | 0.01 to 0.05 µM | > 70%
2 | CCCS(=O)(=O)Nc1cccc(-c2nc(-c3ccc(C4CCN(C(=O)C5CCN(c6ccc(C7CCC(=O)NC7=O)cn6)CC5)CC4)cc3)sc2-c2ccnc(N)n2)c1F (racemic) [Compound 201, Rac-N-{3-[5-(2-aminopyrimidin-4-yl)-2-{4-[1-(1-{5-[(3R)-2,6-dioxopiperidin-3-yl]pyridin-2-yl}piperidine-4-carbonyl)piperidin-4-yl]phenyl}-1,3-thiazol-4-yl]-2-fluorophenyl}propane-1-sulfonamide] | 0.01 to 0.05 µM | 30 to 70%
3 | CCCS(=O)(=O)Nc1cccc(-c2nc(C(C)(C)C)sc2-c2ccnc(Nc3cnn(C4CCN(C(=O)C[C@@H]5CCN(c6ccc(C7CCC(=O)NC7=O)cc6)C5)CC4)c3)n2)c1F (mixture of isomers) [Compound 105, N-{3-[2-tert-butyl-5-(2-{[1-(1-{2-[(3S)-1-{4-[(3RS)-2,6-dioxopiperidin-3-yl]phenyl}pyrrolidin-3-yl]acetyl}piperidin-4-yl)-1H-pyrazol-4-yl]amino}pyrimidin-4-yl)-1,3-thiazol-4-yl]-2-fluorophenyl}propane-1-sulfonamide] | > 0.5 µM | 30 to 70%
4 | CCCS(=O)(=O)Nc1cccc(-c2nc(C(C)(C)C)sc2-c2ccnc(Nc3cccc(OC4CCN(C(=O)C[C@H]5CCN(c6ccc(C7CCC(=O)NC7=O)cc6)C5)CC4)c3)n2)c1F (mixture of isomers) [Compound 91, N-(3-{2-tert-butyl-5-[2-({3-[(1-{2-[(3R)-1-{4-[(3RS)-2,6-dioxopiperidin-3-yl]phenyl}pyrrolidin-3-yl]acetyl}piperidin-4-yl)oxy]phenyl}amino)pyrimidin-4-yl]-1,3-thiazol-4-yl}-2-fluorophenyl)propane-1-sulfonamide] | 0.05 to 0.5 µM | 30 to 70%
5 | CCCS(=O)(=O)Nc1cccc(-c2nc(C(C)(C)C)sc2-c2ccnc(N[C@H]3CC[C@H](N4CCN(CC5CCN(c6ccc(C7CCC(=O)NC7=O)cn6)CC5)CC4)CC3)n2)c1F (mixture of isomers) [Compound 135, N-{3-[2-tert-butyl-5-(2-{[(1r,4r)-4-{4-[(1-{5-[(3RS)-2,6-dioxopiperidin-3-yl]pyridin-2-yl}piperidin-4-yl)methyl]piperazin-1-yl}cyclohexyl]amino}pyrimidin-4-yl)-1,3-thiazol-4-yl]-2-fluorophenyl}propane-1-sulfonamide] | 0.05 to 0.5 µM | 30 to 70%
6 | CCCS(=O)(=O)Nc1cccc(-c2nc(C(C)(C)C)sc2-c2ccnc(Nc3ccc(C4CCN(CC5CCN(c6ccc([C@@H]7CCC(=O)NC7=O)cc6)CC5)CC4)cc3)n2)c1F [Compound 90, N-[3-(2-tert-butyl-5-{2-[(4-{1-[(1-{4-[(3S)-2,6-dioxopiperidin-3-yl]phenyl}piperidin-4-yl)methyl]piperidin-4-yl}phenyl)amino]pyrimidin-4-yl}-1,3-thiazol-4-yl)-2-fluorophenyl]propane-1-sulfonamide] | 0.01 to 0.05 µM | 30 to 70%
7 | CCCS(=O)(=O)Nc1cccc(-c2nc(-c3ccc(N4CCN(C(=O)C5CCN(c6ccc(C7CCC(=O)NC7=O)cn6)CC5)CC4)cc3)sc2-c2ccnc(N)n2)c1F (racemic) [Compound 188, Rac-N-{3-[5-(2-aminopyrimidin-4-yl)-2-{4-[4-(1-{5-[(3R)-2,6-dioxopiperidin-3-yl]pyridin-2-yl}piperidine-4-carbonyl)piperazin-1-yl]phenyl}-1,3-thiazol-4-yl]-2-fluorophenyl}propane-1-sulfonamide] | < 0.01 µM | > 70%
